Source: paper PMC6009888, “Design, synthesis, and pharmacological evaluation of 2-amino-5-nitrothiazole derived semicarbazones as dual inhibitors of monoamine oxidase and cholinesterase: effect of the size of aryl binding site” (Journal of Enzyme Inhibition and Medicinal Chemistry, 2017)
“Also recorded” adds a separate entry of the source. Like-named read-outs stand apart in the source and are kept apart here.

Key:
MAO-B = target: T1, MAO-B (Rattus norvegicus, UniProt P19643); test: biochemical; details: for SI (selectivity index for MAO-B): ratio of experimental IC50(MAO-A)/IC50(MAO-B)
T1 construct: employing crude rat brain mitochondrial suspension; from tissue; host or cells: brain mitochondria of adult Wistar rats
T1 sequence (P19643 1-520): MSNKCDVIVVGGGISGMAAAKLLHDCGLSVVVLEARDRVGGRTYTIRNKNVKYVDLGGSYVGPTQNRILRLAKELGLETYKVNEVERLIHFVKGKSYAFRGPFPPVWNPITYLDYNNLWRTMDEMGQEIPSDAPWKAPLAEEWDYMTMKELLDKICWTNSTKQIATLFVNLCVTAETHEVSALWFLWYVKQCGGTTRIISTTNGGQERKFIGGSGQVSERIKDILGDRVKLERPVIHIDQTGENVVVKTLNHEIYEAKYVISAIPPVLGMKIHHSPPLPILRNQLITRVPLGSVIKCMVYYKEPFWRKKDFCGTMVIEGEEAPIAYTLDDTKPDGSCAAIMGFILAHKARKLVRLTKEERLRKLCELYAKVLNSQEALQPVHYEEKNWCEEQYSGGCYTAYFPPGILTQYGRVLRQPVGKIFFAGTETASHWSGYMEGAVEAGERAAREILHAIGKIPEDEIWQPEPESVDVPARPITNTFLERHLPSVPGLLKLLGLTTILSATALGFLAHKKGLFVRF
Protocol: Rat brain mitochondria were used as a source of MAO isoforms. All operations were carried out at 4 °C[50]. Male and female adult Wistar rats weighing 200–220 g were decapitated. All brains were rapidly removed and homogenised with a Potter–Elvehjem homogeniser in cold 0.32 M sucrose and 50 mM Tris-HCl, pH 8.2 (10:1, v/w). The homogenate was centrifuged twice at 1000 g for 5 min at 4 °C. The resulting supernatant was centrifuged at 20,000 g for 20 min. The mitochondrial pellet obtained was suspended in 100 mM sodium phosphate buffer, pH 7.4 (4:1, v/w), fractionated in plastic vials to 500 µl samples and stored at −80 °C. Before use, mitochondria were diluted with 100 mM sodium phosphate buffer to give a working solution of 0.80 mg of protein per millilitre.
The experiments were carried out under all the suitable laboratory conditions. […] An aliquot was made to contain mixture of 55 µl mitochondrial suspension (0.80 mg of protein/ml), 90 µl 50 mM Tris-HCl buffer, pH 8.2 and 30 µl solubilising solution (control or inhibitor solution at five different concentrations). The reaction was initiated by adding 25 µl of serotonin (4 mM, substrate for MAO-A) and 25 µl benzylamine (0.1 M, substrate for MAO-B) for the determination of MAO-A and MAO-B activity, respectively. The mixture was incubated at 37 °C for 30 min and the reaction was stopped by the addition of 50 µl of 1 N HCl. The absorbance associated with the production of 5-hydroxyindolacetic acid was measured at 280 nm for the estimation of MAO-A while for MAO-B estimation, the absorbance was measured at 250 nm due to the formation of benzaldehyde. All the assays were performed in triplicate. Control experiments were carried out without inhibitor and blanks were run without mitochondrial suspension.
Data are expressed as mean ± standard error mean (SEM) of experiments performed in triplicate.
(§1) 0, 15, 30 and 60 min at 37 °C in Tris-HCl buffer (50 mM, pH 8.2). […] The reactions were further incubated at 37 °C for a further 15 min and the residual enzyme activities were measured and the bar graphs were constructed. All measurements were carried out in triplicate and are expressed as mean ± SEM.

equine serum BuChE = target: T2, equine serum BuChE (Equus caballus, UniProt P81908); test: In vitro BuChE inhibition assay (Ellman's method, equine serum BuChE); format: biochemical
T2 construct: equine serum BuChE was used as enzyme; purchased Sigma-Aldrich; host or cells: equine serum
Protocol: About 30 µl of enzyme sample (AChE) was added to 60 µl of 20 mM sodium phosphate buffer (pH 7.4) and were incubated in the presence of 30 µl of 10 mM DTNB solution with different concentrations of the test compounds. The enzyme reaction was initiated by the addition of 30 µl of 0.8 mM ACTI. The mixtures were incubated for 15 min at 25 °C. […] Control experiments were carried out without inhibitor, and blanks were run without AChE enzyme. All the assays were performed in triplicate. IC50 values were determined using the GraphPad Prism 5.0 (San Diego, CA) and the results were expressed as mean ± SEM.
The BuChE activity was assayed as per the procedure followed for AChE activity except that equine serum BuChE was used as enzyme and butyrylthiocholine iodide (BuTI) was used as substrate.
as §1, with “25” for “37”, “sodium phosphate” for “Tris-HCl”, “(20” for “(50”, “7.4) and DTNB solution (10 mM).” for “8.2).”, “reaction was” for “reactions were”

[1] = equine serum BuChE, BuTI substrate, mean ± SEM, read-out: BuChE In vitro IC50 (µM) ± SEM

T2 sequence (P81908 whole entry): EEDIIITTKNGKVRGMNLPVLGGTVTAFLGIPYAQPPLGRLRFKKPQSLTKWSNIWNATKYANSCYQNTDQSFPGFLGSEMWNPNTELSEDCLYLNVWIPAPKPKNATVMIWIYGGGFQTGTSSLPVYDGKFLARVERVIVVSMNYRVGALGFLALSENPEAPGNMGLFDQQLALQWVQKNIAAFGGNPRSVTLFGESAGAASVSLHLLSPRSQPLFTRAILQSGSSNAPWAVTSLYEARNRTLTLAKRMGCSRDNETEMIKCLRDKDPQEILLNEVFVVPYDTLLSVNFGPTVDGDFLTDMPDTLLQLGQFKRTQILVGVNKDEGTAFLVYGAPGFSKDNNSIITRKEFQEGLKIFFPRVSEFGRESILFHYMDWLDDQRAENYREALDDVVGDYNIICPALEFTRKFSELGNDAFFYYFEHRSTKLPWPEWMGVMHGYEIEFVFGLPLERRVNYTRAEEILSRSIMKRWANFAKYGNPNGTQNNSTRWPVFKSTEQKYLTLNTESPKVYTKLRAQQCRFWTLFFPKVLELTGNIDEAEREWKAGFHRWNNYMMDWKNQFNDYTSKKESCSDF

| SMILES | IC50 (MAO-B) [nM] | SI (selectivity index for MAO-B) (MAO-B) | IC50 (equine serum BuChE; [1]) [µM] | BuChE: fold reduction in activity compared to compound 4 (equine serum BuChE; ratio of IC50 values) [fold] | BuChE: fold reduction in activity compared to compound 5 (equine serum BuChE; ratio of IC50 values) [fold] | Ki (MAO-B) [nM] | Mode of MAO-B inhibition (MAO-B; Lineweaver–Burk plots, benzylamine) | Reversibility of MAO-B inhibition (MAO-B; time-dependent inhibition, pre-incubation 0, 15, 30, 60 min) | MAO-B: fold increase in activity relative to compound 17 (MAO-B; diaryl analogues) [fold] | IC50 (equine serum BuChE) [µM] | BuChE: fold less active relative to compound 17 (equine serum BuChE; diaryl analogues) [fold] |
| --- | --- | --- | --- | --- | --- | --- | --- | --- | --- | --- | --- |
| O=C(NN=C1C(=O)Nc2ccc(Br)cc21)Nc1ncc([N+](=O)[O-])s1 [Compound 21, 1-(5-Bromo-2-oxoindolin-3-ylidene)-4–(5-nitrothiazol-2-yl)semicarbazide] | 734 ± 6 | 77.94 | 5.37 ± 0.278 | ~10.75 | ~9.7 | – | – | – | – | – | – |
| CC(=NNC(=O)Nc1ncc([N+](=O)[O-])s1)c1ccc(Br)cc1 [Compound 4, 1-(1-(4-Bromophenyl)ethylidene)-4-(5-nitrothiazol-2-yl)semicarbazide] | 212 ± 4 | 331.08 | 0.499 ± 0.003 | – | – | 11700 ± 580 | competitive; also recorded: competitively | reversible | – | – | – |
| O=C(NN=C(c1ccc(Cl)cc1)c1ccc(Cl)cc1)Nc1ncc([N+](=O)[O-])s1 [Compound 19, 1-(Bis(4-chlorophenyl)methylene)-4-(5-nitrothiazol-2-yl)semicarbazide] | 1480 ± 63 | 34360.43 | – | – | – | – | – | – | ~19.32 | 5.72 ± 0.874 | ~238 |
| CC(=NNC(=O)Nc1ncc([N+](=O)[O-])s1)c1ccc(Cl)cc1 [Compound 5, 1-(1-(4-Chlorophenyl)ethylidene)-4-(5-nitrothiazol-2-yl)semicarbazide] | 601 ± 15 | 7921.79 | 0.553 ± 0.038 | – | – | – | – | – | – | – | – |
